Key:
[1] = target: T1, CFTR-mediated transepithelial chloride transport in primary human bronchial epithelial cells from a ΔF508 homozygous CF donor (Homo sapiens, UniProt P13569, DEL508-508); test: TECC24 recording of CFTR-mediated transepithelial chloride transport in CF-HBE cells (AUC fold over DMSO); format: cell-based; conditions: test agent 10 μM, 48 hours incubation, AUC of forskolin-stimulated IEQ relative to DMSO
T1 construct: Primary human bronchial epithelial cells from a ΔF508 homozygous CF donor; host or cells: primary CF-HBE cells, ΔF508 homozygous donor
T1 sequence (P13569 with tags, fused parts or gaps DEL508-508): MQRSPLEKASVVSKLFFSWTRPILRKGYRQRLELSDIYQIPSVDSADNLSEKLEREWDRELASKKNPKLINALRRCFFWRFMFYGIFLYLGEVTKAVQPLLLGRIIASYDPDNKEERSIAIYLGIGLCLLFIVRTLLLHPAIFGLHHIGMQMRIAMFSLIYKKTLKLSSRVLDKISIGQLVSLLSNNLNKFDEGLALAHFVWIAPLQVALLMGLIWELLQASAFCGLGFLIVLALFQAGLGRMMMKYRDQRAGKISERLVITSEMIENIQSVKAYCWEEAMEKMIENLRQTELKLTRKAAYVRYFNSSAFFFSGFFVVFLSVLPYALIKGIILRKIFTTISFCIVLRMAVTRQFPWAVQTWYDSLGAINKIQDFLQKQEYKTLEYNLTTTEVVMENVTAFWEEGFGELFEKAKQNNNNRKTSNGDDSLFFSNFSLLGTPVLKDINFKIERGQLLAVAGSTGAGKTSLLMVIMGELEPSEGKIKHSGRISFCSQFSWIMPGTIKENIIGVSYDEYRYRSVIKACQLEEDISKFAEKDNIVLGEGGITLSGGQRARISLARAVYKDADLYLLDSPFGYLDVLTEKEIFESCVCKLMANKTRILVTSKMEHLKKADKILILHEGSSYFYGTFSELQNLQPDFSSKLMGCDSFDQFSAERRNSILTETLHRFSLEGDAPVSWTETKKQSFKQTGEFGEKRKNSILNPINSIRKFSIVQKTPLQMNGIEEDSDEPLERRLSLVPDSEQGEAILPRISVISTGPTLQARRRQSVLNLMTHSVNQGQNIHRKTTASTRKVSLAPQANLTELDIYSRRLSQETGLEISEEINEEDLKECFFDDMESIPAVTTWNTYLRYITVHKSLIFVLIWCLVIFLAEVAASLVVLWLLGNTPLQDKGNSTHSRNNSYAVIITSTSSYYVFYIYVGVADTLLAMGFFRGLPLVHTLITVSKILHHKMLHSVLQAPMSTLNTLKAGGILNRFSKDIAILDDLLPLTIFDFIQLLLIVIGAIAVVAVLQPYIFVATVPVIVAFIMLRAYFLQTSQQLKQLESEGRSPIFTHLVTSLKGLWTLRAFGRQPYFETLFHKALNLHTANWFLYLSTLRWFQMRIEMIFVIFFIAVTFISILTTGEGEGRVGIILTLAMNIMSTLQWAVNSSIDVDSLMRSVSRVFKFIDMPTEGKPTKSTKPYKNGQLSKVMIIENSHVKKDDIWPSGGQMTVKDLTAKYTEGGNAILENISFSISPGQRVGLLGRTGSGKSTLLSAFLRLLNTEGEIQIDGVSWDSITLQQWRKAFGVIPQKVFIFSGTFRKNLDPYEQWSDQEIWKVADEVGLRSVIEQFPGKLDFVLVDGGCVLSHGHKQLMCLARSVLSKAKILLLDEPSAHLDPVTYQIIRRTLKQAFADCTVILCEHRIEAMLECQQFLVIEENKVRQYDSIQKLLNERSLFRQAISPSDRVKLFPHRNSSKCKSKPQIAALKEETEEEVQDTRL
How it was run: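 Equivalent Cl⁻ current was derived from transepithelial voltage and resistance, and its AUC from forskolin (10 μM) to CFTRinh-172 (20 μM) was divided by the DMSO AUC. Benzamil 10 μM blocked ENaC. Cells were ΔF508-homozygous primary bronchial epithelia pretreated 48 h at 36.5 °C in IL-13 medium.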

[2] = target: T2, human Cystic Fibrosis Transmembrane Conductance Regulator (CFTR) harboring the ΔF508 mutation (Homo sapiens, UniProt P13569, DEL508-508); test: H441 cell ΔF508-CFTR-HRP cell surface assay (Emax and EC50); format: cell-based; conditions: for Emax: NCI-H441, NA = Not active
T2 construct: expressed in transfected cells; host or cells: H441 carcinoma line (G418-selected)
T2 sequence (P13569 with tags, fused parts or gaps DEL508-508): as above
How it was run: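 H441 and 41o- bronchial epithelial cells expressing ΔF508-CFTR with an extracellular-loop-4 HRP tag were treated with a 15-point compound series (24.5–0.001 μM) for two nights, H441 at 27° C, 41o- at 37° C with 0.0005 mg/ml doxycycline. Surface HRP luminescence read; % of maximum VX809 signal and EC50 derived.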

SMILES | TECC24 AUC fold over DMSO @10 μM [1] | EC50 [2] [µM] | Emax [2] [%]
O=C(N[C@@H](Cc1ccc(C(F)(F)F)cc1)C(=O)O)c1ccc2ccccc2c1OCc1ccc(C(F)(F)F)cc1 [Example 104, (S)-2-(1-((4-(trifluoromethyl)benzyl)oxy)-2-naphthamido)-3-(4-(trifluoromethyl)phenyl)propanoic Acid] | C (“C” refers to AUC @10 uM <4) | 7.7 | 77.8
O=C(N[C@@H](Cc1ccc(C(F)(F)F)cc1)C(=O)O)c1ccc2cc(F)ccc2c1OCc1ccc(C(F)(F)F)cc1 [Example 197, (S)-2-(6-fluoro-1-((4-(trifluoromethyl)benzyl)oxy)-2-naphthamido)-3-(4-(trifluoromethyl)phenyl)propanoic Acid] | B (“B” refers to AUC @10 uM between 4-6) | 11.5 | 80.8
O=C(N[C@@H](Cc1ccccc1)C(=O)O)c1ccc2ccccc2c1OCc1cccc(C(F)(F)F)c1 [Example 95, (1-((3-(trifluoromethyl)benzyl)oxy)-2-naphthoyl)-L-phenylalanine] | C (“C” refers to AUC @10 uM <4) | 16 | 29.3
CC(OCc1ccccc1)[C@H](NC(=O)c1ccc2cc(F)ccc2c1OCc1ccc(Cl)c(Cl)c1)C(=O)O (stereo in doubt) [Example 208, O-benzyl-N-(1-((3,4-dichlorobenzyl)oxy)-6-fluoro-2-naphthoyl)-L-allothreonine] | C (“C” refers to AUC @10 uM <4) | 1.5 | 154
Cc1ccc2ccc(C(=O)N[C@H](C(=O)O)C(C)(C)CF)c(OCC3CCCCC3)c2c1 [Example 282, (S)-2-(1-(cyclohexylmethoxy)-7-methyl-2-naphthamido)-4-fluoro-3,3-dimethylbutanoic Acid] | A (“A” refers to AUC @10 uM >6) | 0.7 | 285
CCC1([C@H](NC(=O)c2ccc3ccc(F)cc3c2OCc2ccc(OC(F)(F)F)cc2)C(=O)O)CCCC1 [Example 313, (S)-2-(1-ethylcyclopentyl)-2-(7-fluoro-1-((4-(trifluoromethoxy)benzyl)oxy)-2-naphthamido)acetic Acid] | A (“A” refers to AUC @10 uM >6) | 0.3 | 152
CCCC(C)(CC)[C@H](NC(=O)c1ccc2ccc(Cl)cc2c1OCc1ccc(OC(F)(F)F)cc1)C(=O)O (stereo partly drawn) [Example 251, (2S)-2-[[7-chloro-1-[[4-(trifluoromethoxy)phenyl]methoxy]naphthalene-2-carbonyl]amino]-3-ethyl-3-methyl-hexanoic Acid] | A (“A” refers to AUC @10 uM >6) | 0.1 | 267
CCC(C)(C)[C@H](NC(=O)c1ccc2ccc(Cl)cc2c1OCc1ccc(C(F)(F)F)cc1)C(=O)O [Example 283, (S)-2-(7-chloro-1-((4-(trifluoromethyl)benzyl)oxy)-2-naphthamido)-3,3-dimethylpentanoic Acid] | A (“A” refers to AUC @10 uM >6) | 0.2 | 313
CC(C)(C)[C@H](NC(=O)c1ccc2cc(F)ccc2c1OCc1ccc(OC(F)(F)F)cc1)C(=O)O [Example 19, (S)-2-(6-fluoro-1-((4-(trifluoromethoxy)benzyl)oxy)-2-naphthamido)-3,3-dimethylbutanoic Acid] | C (“C” refers to AUC @10 uM <4) | 21.9 | 48.3
C[C@@H](OCc1ccccc1)C(NC(=O)c1ccc2ccccc2c1OCC1CCCCC1)C(=O)O (stereo partly drawn) [Example 150, (3R)-3-(benzyloxy)-2-(1-(cyclohexylmethoxy)-2-naphthamido)butanoic Acid] | C (“C” refers to AUC @10 uM <4) | 10.9 | 82.5
CC(C)(S[C@@H]1C[C@@H]2CC[C@H]1C2)[C@H](NC(=O)c1ccc2ccccc2c1OCc1ccc(SC(F)(F)F)cc1)C(=O)O [Example 174, (R)-3-(((1S,2R,4R)-bicyclo[2.2.1]heptan-2-yl)thio)-3-methyl-2-(1-((4-((trifluoromethyl)thio)benzyl)oxy)-2-naphthamido)butanoic Acid] | C (“C” refers to AUC @10 uM <4) | 0.3 | 117
O=C(N[C@H](C(=O)O)C1CCCC1)c1ccc2cc(F)ccc2c1OCc1ccc(OC(F)(F)F)cc1 [Example 119, (S)-2-cyclopentyl-2-(6-fluoro-1-((4-(trifluoromethoxy)benzyl)oxy)-2-naphthamido)acetic Acid] | A (“A” refers to AUC @10 uM >6) | 0.8 | 37.1
CC(C)(C)C[C@H](NC(=O)c1ccc2ccccc2c1OCc1ccc(S(F)(F)(F)(F)F)cc1)C(=O)O [Example 110, (S)-4,4-dimethyl-2-(1-((4-(pentafluoro-16-sulfanyl)benzyl)oxy)-2-naphthamido)pentanoic Acid] | B (“B” refers to AUC @10 uM between 4-6) | 2.1 | 83.1
CCC(C)(C)[C@H](NC(=O)c1ccc2ccc(C)cc2c1OCCCC(C)(C)C)C(=O)O [Example 257, (2S)-2-[[1-(4,4-dimethylpentoxy)-7-methyl-naphthalene-2-carbonyl]amino]-3,3-dimethyl-pentanoic Acid] | A (“A” refers to AUC @10 uM >6) | 0.6 | 369
COC(=O)c1ccc(COc2c(C(=O)N[C@H](C(=O)O)C(C)(C)C)ccc3ccccc23)cc1 [Example 28, (S)-2-(1-((4-(methoxycarbonyl)benzyl)oxy)-2-naphthamido)-3,3-dimethylbutanoic Acid] | C (“C” refers to AUC @10 uM <4) | 4.9 | 70.2
CC(C)(C)C[C@H](NC(=O)c1ccc2cc(F)ccc2c1OCc1nc2ccccc2s1)C(=O)O [Example 218, (S)-2-(1-(benzo[d]thiazol-2-ylmethoxy)-6-fluoro-2-naphthamido)-4,4-dimethylpentanoic Acid] | C (“C” refers to AUC @10 uM <4) | 4.8 | 86.8
CC(C)(C)[C@H](NC(=O)c1ccc2c(F)cccc2c1OCc1ccc(C(F)(F)F)cc1)C(=O)O [Example 236, (2S)-2-[[5-fluoro-1-[[4-(trifluoromethyl)phenyl]methoxy]naphthalene-2-carbonyl]amino]-3,3-dimethyl-butanoic Acid] | B (“B” refers to AUC @10 uM between 4-6) | 1 | 130
CC(C)(C)[C@H](NC(=O)c1ccc2ccccc2c1OCC1CC2CCC1C2)C(=O)O (stereo partly drawn) [Example 41, (2S)-2-(1-(bicyclo[2.2.1]heptan-2-ylmethoxy)-2-naphthamido)-3,3-dimethylbutanoic Acid] | C (“C” refers to AUC @10 uM <4) | 3.7 | 112
CC1(C(NC(=O)c2ccc3ccccc3c2OCc2ccc(S(F)(F)(F)(F)F)cc2)C(=O)O)CC1 (stereo not drawn) [Example 68, 2-(1-methylcyclopropyl)-2-(1-((4-(pentafluoro-l6-sulfanyl)benzyl)oxy)-2-naphthamido)acetic Acid] | C (“C” refers to AUC @10 uM <4) | 1.9 | 104
CC(C)(C)C[C@H](NC(=O)c1ccc2ccccc2c1OCC1CCCCC1)C(=O)O [Example 201, (S)-2-(1-(cyclohexylmethoxy)-2-naphthamido)-4,4-dimethylpentanoic Acid] | C (“C” refers to AUC @10 uM <4) | 4.1 | 135
CC(C)(C)C[C@H](NC(=O)c1ccc2cc(F)ccc2c1OCc1ccc(C(F)(F)F)cc1)C(=O)O [Example 198, (S)-2-(6-fluoro-1-((4-(trifluoromethyl)benzyl)oxy)-2-naphthamido)-4,4-dimethylpentanoic Acid] | A (“A” refers to AUC @10 uM >6) | 1.5 | 94.4
CC1(C(NC(=O)c2ccc3ccccc3c2OCc2ccc(C(F)(F)F)cc2)C(=O)O)CC1 (stereo not drawn) [Example 56, 2-(1-methylcyclopropyl)-2-(1-((4-(trifluoromethyl)benzyl)oxy)-2-naphthamido)acetic Acid] | C (“C” refers to AUC @10 uM <4) | 1.7 | 127
CC(C)(C)[C@H](NC(=O)c1cc(F)c2ccccc2c1OCc1ccc(C(F)(F)F)cc1)C(=O)O [Example 64, (S)-2-(4-fluoro-1-((4-(trifluoromethyl)benzyl)oxy)-2-naphthamido)-3,3-dimethylbutanoic Acid] | C (“C” refers to AUC @10 uM <4) | 0.6 | 106
CC(C)(C)[C@H](NC(=O)c1ccc2ccc(Br)cc2c1OCc1ccc(C(F)(F)F)cc1)C(=O)O [Example 256, (2S)-2-[[7-bromo-1-[[4-(trifluoromethyl)phenyl]methoxy]naphthalene-2-carbonyl]amino]-3,3-dimethyl-butanoic Acid] | A (“A” refers to AUC @10 uM >6) | 0.1 | 296
O=C(N[C@@H](Cc1ccccc1)C(=O)O)c1ccc2ccccc2c1OCc1ccc(Cl)c(Cl)c1 [Example 99, (1-((3,4-dichlorobenzyl)oxy)-2-naphthoyl)-L-phenylalanine] | C (“C” refers to AUC @10 uM <4) | 5.7 | 83.1

Reference: patent US12630498B2 (Genzyme Corporation, priority 2019, dated 2026)
